These are literature values, as cited in PubChem BioAssay AID1259410 (Chemical Carcinogenesis Research Information System (CCRIS), 2018).

Molecules are shown by their SMILES.

The subject of the data set is rodent tumor promotion studies, tumor incidence. The data set can be described thus: CCRIS tumor promotion studies.
Setting [1] is: Carcinogen: 7,12-DIMETHYLBENZ(A)ANTHRACENE, Doses [Carcinogen]: TOP, Route [Carcinogen]: DERMAL, Route [Promoter]: DERMAL, Species: MOUSE, Strain/Sex: FEMALE.

Take `OO`: the outcome (Carcinogen: N-METHYL-N'-NITRO-N-NITROSOGUANIDINE, 70-25-7, Doses [Carcinogen]: 25 PPM IN WATER FOR 30 MIN, Doses [Promoter]: 0, 600, 3000 PPM IN DIETS CONTAINING HIGH (1000 PPM) LEVELS OF VITAMIN E FOR 8 MO (STUDY DURATION: 10 MO), Doses [Promoter]: 0, 600, 3000 PPM IN DIETS CONTAINING HIGH (1000 PPM) LEVELS OF VITAMIN E FOR 8 MO (STUDY DURATION: 10 MO), Route [Carcinogen]: IMMERSION, Route [Promoter]: ORAL, Species: FISH, Strain/Sex: RAINBOW TROUT/MALE, FEMALE) is recorded as “liver: tumor” and the outcome (Carcinogen: N-METHYL-N'-NITRO-N-NITROSOGUANIDINE, 70-25-7, Doses [Carcinogen]: 25 PPM IN WATER FOR 30 MIN, Doses [Promoter]: 0, 600 PPM IN DIETS CONTAINING LOW (20 PPM) LEVELS OF VITAMIN E FOR 8 MO (STUDY DURATION: 10 MO), Route [Carcinogen]: IMMERSION, Route [Promoter]: ORAL, Species: FISH, Strain/Sex: RAINBOW TROUT/MALE, FEMALE) is “liver: tumor”.

In the case of `C=CCc1ccc(O)c(OC)c1`, the outcome (Carcinogen: 1,2-DIMETHYLHYDRAZINE, 57-14-7 1-METHYL-1-NITROSOUREA, 684-93-5, Carcinogen: 1,2-DIMETHYLHYDRAZINE, 57-14-7 1-METHYL-1-NITROSOUREA, 684-93-5, Doses [Carcinogen]: 40 MG/KG 1,2-DIMETHYLHYDRAZINE IN 0.9% NACL SUBCUTANEOUS 3/WK IN FIRST WK FOLLOWED BY 20 MG 1-METHYL-1-NITROSOUREA/5 ML, Doses [Promoter]: 0, 0.8% IN DIET FOR 48 WK ADMINISTERED 1 WK POST CARCINOGEN DOSE (STUDY DURATION: 52 WK), Route [Carcinogen]: SUBCUTANEOUS, INTRAPERITONEAL, Route [Promoter]: ORAL, Species: RAT, Strain/Sex: F344/MALE) is reported as “forestomach: papilloma”.

Consider `CN(C)C(=S)SSC(=S)N(C)C`, for which the outcome by setting is: (Carcinogen: 7,12-DIMETHYLBENZ[A]ANTHRACENE, 57-97-6, Doses [Carcinogen]: 52 UG IN 100 µL ACETONE ONCE, Doses [Promoter]: 0, 100 MG/KG BW IN 100 µL DMSO 3/WK FOR 51 WK BEGINNING 1 WK POST CARCINOGEN DOSE (STUDY DURATION: 52 WK), Route [Carcinogen]: DERMAL, Route [Promoter]: DERMAL, Species: MOUSE, Strain/Sex: SWISS/FEMALE) “skin: tumor”; (Carcinogen: 7,12-DIMETHYLBENZ[A]ANTHRACENE, 57-97-6, Doses [Carcinogen]: 52 UG IN 100 µL ACETONE ONCE, Doses [Promoter]: 0, 100 MG/KG BW IN 100 µL DMSO 3/WK FOR 51 WK BEGINNING 1 WK POST CARCINOGEN DOSE (STUDY DURATION: 52 WK), Route [Carcinogen]: DERMAL, Route [Promoter]: DERMAL, Species: MOUSE, Strain/Sex: SWISS/MALE) “skin: tumor”. `Cc1cc(C)cc(O)c1`: under setting [1], the outcome was “integumentary system (skin)”. On to `CCCCCCCCCc1ccc(O)cc1`, for which the outcome (Carcinogen: 2',3-dimethyl-4-aminobiphenyl, 13394-86-0, Doses [Carcinogen]: 50 mg/kg every other wk for 10 injections from 7 wks of age, study duration 64 wks, Doses [Promoter]: 0, 25, 250, 2000 ppm in diet from 3 wks of age for 3 wks, Route [Carcinogen]: Subcutaneous, Route [Promoter]: Oral, Species: Rat, Strain/Sex: F344/Male (15-20/Group)) was “prostate: adenocarcinoma, no effect”. As for `CCCCCCCC/C=C\CCCCCCCC(=O)OC`, for the setting “Carcinogen: 7,12-DIMETHYLBENZ(A)ANTHRACENE, Doses [Carcinogen]: TOP, Route [Carcinogen]: DERMAL, Route [Promoter]: DERMAL, Species: MOUSE, Strain/Sex: MALE,FEMALE”, the outcome is “integumentary system (skin)”. `CCCCCCCCCCO`: the outcome under setting [1] was “integumentary system (skin)”. On to `CSCC[C@H](NC(=O)[C@H](Cc1ccccc1)NC(=O)CNC(=O)CNC(=O)[C@@H](N)Cc1ccc(O)cc1)C(=O)O`, for which the outcome is “colon: tumor” (Carcinogen: AZOXYMETHANE, 25843-45-2, Doses [Carcinogen]: 7.4 MG/KG IN 0.9% SALINE 1/WK FOR 10 WK, Doses [Promoter]: 0, 50 UG/KG IN OLIVE OIL 1/2 D BEGINNING AT THE START OF CARCINOGEN TREATMENT AND CONTINUING FOR DURATION OF STUDY (STUD, Route [Carcinogen]: SUBCUTANEOUS, Route [Promoter]: SUBCUTANEOUS, Species: RAT, Strain/Sex: WISTAR/MALE) and “stomach: adenocarcinoma” (Carcinogen: N-METHYL-N'-NITRO-N-NITROSOGUANIDINE, 70-25-7, Doses [Carcinogen]: 25 UG/ML IN DRINKING WATER FOR 25 WK, Doses [Promoter]: 0, 20 UG/KG 1/2 D BEGINNING POST CARCINOGEN TREATMENT AND CONTINUING FOR THE DURATION OF STUDY (STUDY DURATION: 52 WK), Route [Carcinogen]: ORAL, Route [Promoter]: SUBCUTANEOUS, Species: RAT, Strain/Sex: WISTAR/MALE). For the molecule `S=C=NCc1ccccc1`, the outcome (Carcinogen: DIETHYLNITROSAMINE, 55-18-5, N-BUTYL-N-(4-HYDROXYBUTYL)NITROSAMINE, 3817-11-6, Carcinogen: DIETHYLNITROSAMINE, 55-18-5, N-BUTYL-N-(4-HYDROXYBUTYL)NITROSAMINE, 3817-11-6, Doses [Carcinogen]: 200 MG/KG DEN ONCE THEN 0.05% BBN IN DRINKING WATER FOR 4 WK, Doses [Promoter]: 0, 0.1% IN DIET FOR 32 WK BEGINNING 3 D POST CARCINOGEN TREATMENT (STUDY DURATION:36 WK), Route [Carcinogen]: INTRAPERITONEAL, ORAL, Route [Promoter]: ORAL, Species: RAT, Strain/Sex: F344/MALE) is given as “urinary bladder: papilloma, carcinoma”.
